Laboratory results from paper PMC4223017, “Structural Model of the hUbA1-UbcH10 Quaternary Complex: In Silico and Experimental Analysis of the Protein-Protein Interactions between E1, E2 and Ubiquitin” (PLoS ONE, 2014).
Entries after “also recorded” stand apart in the source; their conditions may differ. Residues, ends and D or L forms follow the SMILES beside them. *: point of attachment. Biotin = O=C1N[C@H]2[C@H](CS[C@H]2CCCCC(=O)*)N1; Ahx = NCCCCCC(=O)O

Experiments:
[1] = Solubility of the synthesized peptides (testability in binding assays); format: physicochemical; details: for Solubility: biotinylated peptide, not testable in binding assays; for solubility, in words: biotinylated peptides
From the text: (§1) On the basis of the 3D model of the quaternary complex, we have designed six peptides as molecular probes in order to calibrate their ability to interfere the binding of UbcH10. This strategy was motivated by two main reasons. First, the identification of short peptides that mediate protein-protein interaction seemed a priori effective for disrupting the protein-protein recognition and binding. While other strategies, i.e. introduction of specific mutations, may also be envisaged, it is unclear whether single-point mutants might lead to a significant destabilization of the complex or even to impede the formation of the quaternary complex. Second, since our ultimate goal is the design of compounds that might disrupt the ubiquitilation process, testing a series of suitably chosen short peptides represents a valuable proof-of-concept for supporting the potential therapeutic effect of peptidomimetics. Specifically, the peptides were designed to examine the capability of hUbA1 stretches that contribute to the protein-protein interface with UbcH10 (Figure S7). In particular, we have designed two peptides per interface, which will be denoted S for SCCH region, L for cross loop, and U for UFD (Table 4). In the UFD region peptides U1 and U2 were selected to test the relevance of the acidic residues in mediating the binding of the UbcH10 H1 helix. […] Finally, peptides L1 and L2 were chosen to explore the role of the cross loop region in assisting the interaction with UbcH10. All the peptides were synthesized as biotinylated derivatives by solid phase method and purified by RP-HPLC. Unfortunately, S1 and U2 were insoluble and so not testable in binding assays. The ability of the soluble peptides to bind recombinant GST-UbcH10 was checked by ELISA, utilizing GST as control (data not shown).

[2] = molecular target: T1, GST-UbcH10 (Homo sapiens, UniProt O00762); test: ELISA binding of biotinylated peptides to coated GST-UbcH10; details: for binding to UbcH10, in words: ELISA on recombinant GST-UbcH10, biotinylated peptides; for KD (µM) / Kd: ELISA, wells coated overnight at 4°C with 100 µg/ml GST-UbcH10 in PBS 1X, 1 mM TCEP, biotinylated peptides at 2.2, 11, 22, 44, 108 µM in PBS 1X (1 mM TCEP for U1 and ScrU1), streptavidin-HRP, OPD, read at 490 nm, GraphPad Prism
T1 construct: made in house; host or cells: E. coli BL21 (DE3) RP
T1 sequence (O00762 1-179): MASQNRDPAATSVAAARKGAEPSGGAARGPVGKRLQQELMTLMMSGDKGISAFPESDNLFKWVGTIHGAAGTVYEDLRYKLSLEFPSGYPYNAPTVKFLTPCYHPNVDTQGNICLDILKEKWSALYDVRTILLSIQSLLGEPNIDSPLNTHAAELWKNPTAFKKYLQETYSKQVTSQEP
Protocol: The PCR product was cloned into pGEX-4T1 expression vector (GE Healthcare), leading to a protein with a cleavable N-terminal GST tag (GST-UbcH10). E. coli BL21 (DE3) RP strain was transformed with the recombinant plasmid for GST-UbcH10. Overnight cultures were used to inoculate 500 ml LB medium containing 50 µg/ml ampicillin, and protein induction was performed by the addition of 1 mM IPTG at 22°C when an OD600 value of 0.7 was reached. After approximately 16 h the cells were harvested and the proteins were isolated by sonicating cell pellets resuspended in 30 ml PBS1X in the presence of an EDTA free protease inhibitor cocktail (Roche Diagnostics). The crude cell extract was cleared by centrifugation at 18000 rpm and the supernatant was loaded onto a 1 ml GST-trap column connected to AKTA FPLC system (GE-Healthcare) equilibrated with binding buffer PBS1X. After washing with ten volumes of binding buffer, a single elution step was performed with 50 mM TrisHCl, 10 mM reduced glutathione. The fractions containing GST-UbcH10 were pooled and extensively dialyzed against PBS1X at 4°C. The homogeneity of the protein was tested by SDS–PAGE and mass spectrometry.
Wells were coated overnight at 4°C with 100 µg/ml GST-UbcH10 in PBS 1X, 1 mM TCEP, in the presence of an EDTA free protease inhibitor cocktail (Roche Diagnostics). Binding step was performed with different concentrations of biotinylated peptides L1, L2, ScrL2, U1, ScrU1, S2 (2.2, 11, 22, 44, 108 µM) in PBS 1X (with 1 mM TCEP for U1 and ScrU1). A blocking solution 1% BSA in PBS 1X, 0.05% Tween-20 was used. Washes were executed with PBS 1X, 0.05% Tween-20. To verify the interaction a 1∶10000 dilution of horseradish peroxidase-conjugated streptavidin (Sigma Aldrich) in 0.3% BSA, PBS 1X was incubated for 1 hour. The colorimetric reaction was carried out with SIGMA-FAST OPD reagent (Sigma Aldrich), according to the manufacturer's instructions. Finally, readings were performed at 490 nm on a Model680 MicroplateReader (Bio-Rad, Hercules, CA-USA), and data were recorded by Microplate Manager 5.2 program and elaborated by GraphPad Prism program. Negative control experiments with the fusion tag GST in coating were performed in the same conditions described above.
as §1, with “The ability of the soluble peptides to bind recombinant GST-UbcH10 was checked by ELISA, utilizing GST as control (data not shown).” left out

[3] = molecular target: T2, GST-UbcH10 (UniProt O00762 1-179); test: ELISA; wells coated overnight at 4°C with 100 µg/ml GST-UbcH10 in PBS, 1 mM TCEP; biotinylated peptides at 2.2, 11, 22, 44, 108 µM in PBS (1 mM TCEP for U1 and ScrU1); detection with streptavidin-HRP, reading at 490 nm; apparent KD; details: both partners purified
T2 construct: UbcH10, a Ubiquitin Conjugation Enzyme (E2); PCR product cloned into pGEX-4T1; The GST tag is cleavable but the fusion GST-UbcH10 was coated on the wells; PDB 1I7K (used only for modelling) lacks the first 30 residues and has Ser114; nothing says that the ELISA construct has these limits; also called E2; recombinant GST-UbcH10; source: E. coli BL21 (DE3) RP, purified (GST-trap column, dialysed …)
T2 sequence (looked up): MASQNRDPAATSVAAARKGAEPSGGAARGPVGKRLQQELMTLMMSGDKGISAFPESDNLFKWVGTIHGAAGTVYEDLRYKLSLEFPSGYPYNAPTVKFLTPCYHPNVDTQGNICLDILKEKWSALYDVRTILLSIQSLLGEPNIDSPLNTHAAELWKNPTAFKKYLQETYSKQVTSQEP

## IHVSDQELQSA [S1, peptide from hUbA1 SCCH region (Cys-cap), residues 807-817, biotinylated derivative]
[1]
  Solubility: Not soluble
  solubility, in words: insoluble

## SQDPPEKSIPI [L1, peptide from hUbA1 cross loop, residues 621-631, biotinylated derivative]
[2]
  binding to UbcH10, in words: low affinity
  KD (µM): No binding

## LELCCNDESGEDV [U2, peptide from hUbA1 UFD region, residues 1036-1048, biotinylated derivative]
[1]
  Solubility: Not soluble
  solubility, in words: insoluble; also recorded: low solubility

## CC(C)C[C@H](NC(=O)[C@H](CCC(=O)O)NC(=O)CCCCCNC(=O)CCCC[C@@H]1SC[C@@H]2NC(=O)N[C@@H]21)C(=O)N[C@@H](CC(N)=O)C(=O)N[C@@H](CS)C(=O)N[C@@H](CC(=O)O)C(=O)N[C@H](C(=O)N[C@@H](CCC(=O)O)C(=O)N[C@H](C(=O)N[C@@H](CCC(=O)O)C(=O)NCC(=O)N[C@@H](CO)C(=O)N[C@@H](CC(=O)O)C(=O)N[C@@H](CS)C(N)=O)C(C)C)C(C)C [ScrU1] ({Biotin-Ahx}-ELNCDVEVEGSDC-NH2)
[2]
  binding to UbcH10, in words: very poor binding
  Kd: > 100 µM

## RDEFEGLFKQPAEN [S2, peptide corresponding to helix H19 in the hUbA1 SCCH region, residues 649-662, designed as negative control]
[2]
  KD (µM): No binding

## C[C@@H](O)[C@H](NC(=O)[C@H](CCCCN)NC(=O)[C@H](CO)NC(=O)[C@@H]1CCCN1C(=O)[C@H](CC(=O)O)NC(=O)[C@H](CO)NC(=O)CCCCCNC(=O)CCCC[C@@H]1SC[C@@H]2NC(=O)N[C@@H]21)C(=O)N[C@@H](CO)C(=O)N[C@@H](CCC(=O)O)C(=O)N[C@@H](Cc1ccc(O)cc1)C(=O)N[C@@H](CCC(N)=O)C(=O)N1CCC[C@H]1C(=O)N[C@@H](CO)C(=O)N[C@@H](CCC(=O)O)C(N)=O [ScrL2] ({Biotin-Ahx}-SDPSKTSEYQPSE-NH2)
[2]
  binding to UbcH10, in words: very poor binding
  Kd: > 80 µM

B1: U1 peptide (hUbA1 UFD region, 1038-1050) (peptide)
peptide: {Biotin-Ahx}-LCCNDESGEDVEV-NH2
modifications: cysteine pairing not given here
notes: human UbA1 (E1), UFD region, residues 1038-1050; source: synthetic peptide (Fmoc solid phase, RP-HPLC purified)
[3]
  Kd: 10 µM

B2: L2 peptide (hUbA1 cross loop, 615-627) (peptide)
peptide: {Biotin-Ahx}-TESYSSSQDPPEK-NH2
SMILES: C[C@@H](O)[C@H](NC(=O)CCCCCNC(=O)CCCC[C@@H]1SC[C@@H]2NC(=O)N[C@@H]21)C(=O)N[C@@H](CCC(=O)O)C(=O)N[C@@H](CO)C(=O)N[C@@H](Cc1ccc(O)cc1)C(=O)N[C@@H](CO)C(=O)N[C@@H](CO)C(=O)N[C@@H](CO)C(=O)N[C@@H](CCC(N)=O)C(=O)N[C@@H](CC(=O)O)C(=O)N1CCC[C@H]1C(=O)N1CCC[C@H]1C(=O)N[C@@H](CCC(=O)O)C(=O)N[C@@H](CCCCN)C(N)=O
notes: human UbA1 (E1), cross loop region, residues 615-627; source: synthetic peptide (Fmoc solid phase, RP-HPLC purified)
[3]
  Kd: 20 µM

B3: U1-scrambled peptide (peptide)
peptide: {Biotin-Ahx}-ELNCDVEVEGSDC-NH2
modifications: cysteine pairing not given here
notes: scrambled order of the residues of peptide U1; also called ScrU1; source: synthetic peptide (Fmoc solid phase, RP-HPLC purified)
[3]
  Kd: > 100 µM

B4: L2-scrambled peptide (peptide)
peptide: {Biotin-Ahx}-SDPSKTSEYQPSE-NH2
SMILES: C[C@@H](O)[C@H](NC(=O)[C@H](CCCCN)NC(=O)[C@H](CO)NC(=O)[C@@H]1CCCN1C(=O)[C@H](CC(=O)O)NC(=O)[C@H](CO)NC(=O)CCCCCNC(=O)CCCC[C@@H]1SC[C@@H]2NC(=O)N[C@@H]21)C(=O)N[C@@H](CO)C(=O)N[C@@H](CCC(=O)O)C(=O)N[C@@H](Cc1ccc(O)cc1)C(=O)N[C@@H](CCC(N)=O)C(=O)N1CCC[C@H]1C(=O)N[C@@H](CO)C(=O)N[C@@H](CCC(=O)O)C(N)=O
notes: scrambled order of the residues of peptide L2; also called ScrL2; source: synthetic peptide (Fmoc solid phase, RP-HPLC purified)
[3]
  Kd: > 80 µM
